Here are results for 34 molecules from US9896418B2, “Aryl ethers and uses thereof” (Peloton Therapeutics, Inc., priority 2013, dated 2018).

In one assay the test system is 786-O-Hif-Luc cells. Kind of assay: Luciferase Assay. The class given is cell-based. To be noted: about 24 hours, read-out: Mean Luciferease EC50. On the procedure: A pool of infected cells were then selected against 2 μg/mL of puromycin (P8833, Sigma) for 10 days followed by limited dilution to select single clones.
Each concentration was tested in triplicate. After about 24 hours, luciferase activity was determined using ONE-Glo Luciferase Assay Reagent (E6110, Promega) following the manufacturer's recommended procedure. EC50 were calculated by using Dotmatics software.

Assay [1] relates to HIF-2α HIS TAG-PASB Domain. Kind of assay: HIF-2α Scintillation Proximity Assay (SPA). The class given is binding. On the procedure: The percent inhibition was determined and IC50 values were calculated using the Dotmatics system based on the following equation: % inhibition=[(high control−sample)/(high control−low control)]×100.
The subject of another assay is 786-O cells. Kind of assay: VEGF ELISA Assay. The class given is cell-based. On the procedure: Each concentration had duplicated wells. About 20 hours later, medium was removed by suction and each well was supplied with 180 μL of growth medium. About 20 μl freshly-made 10× compound stocks were added to each well. […] The EC50 was calculated by GraphPad Prism using the dose-response-inhibition (four parameter) equation. The cell seeded plate was then subjected to CellTiter-Glo luminescence cell viability assay (Promega) by adding 50 μL of Celltiter Glo reagent into each well and shaking the plate for 8 minutes at 550 rpm (Thermomixer R, Eppendorf) then read luminescence signal in plate reader (3 second delay, 0.5 second/well integration time, Synergy 2 multi Detection Microplate reader) immediately.
(In general: In an ELISA, binding on a coated surface is turned into a signal by an enzyme label.)

With `C[C@H]1C[C@@H](O)c2c(S(=O)(=O)C(F)F)ccc(Oc3cc(F)cc(Cl)c3)c21` (racemic) [Compound 7a], in the assay with 786-O-Hif-Luc cells, the EC50 is 1000 nM.

`C=CCN=S(=O)(c1ccc(Oc2cc(F)cc(C#N)c2)c2c1[C@H](O)C(F)(F)C2)C(F)(F)F` (single isomer, unassigned) [Compound 307] showed an IC50 in assay [1] of 370 nM. Besides, the EC50 in the assay with 786-O-Hif-Luc cells turned out to be 1700 nM.

In assay [1], `C=CCN=S(=O)(c1ccc(Oc2cc(F)cc(C#N)c2)c2c1[C@H](O)C(F)(F)C2)C(F)(F)F` (single isomer, unassigned) [Compound 308] had an IC50 of 68 nM. Also, in the assay on 786-O-Hif-Luc cells, the half-maximal effective concentration (EC50) was 690 nM.

Turning to `CS(=O)(=NC#N)c1ccc(Oc2cc(F)cc(C#N)c2)c2c1[C@H](O)C(F)(F)C2` (single isomer, unassigned) [Example 245], in assay [1], half-maximal inhibition (IC50) was put at 32 nM. Besides, the EC50 with 786-O cells (786-O cells) turned out to be 160 nM; in the assay on 786-O-Hif-Luc cells, 61 nM.

For the molecule `N#Cc1cc(F)cc(Oc2ccc(S(=N)(=O)CF)c3c2CC(F)(F)[C@H]3O)c1` (single isomer, unassigned) [Example 275], 76 nM corresponded to half-maximal inhibition in assay [1] (IC50). Besides, in the assay with 786-O-Hif-Luc cells, the EC50 amounted to 260 nM.

Turning to `N#CN=S(=O)(CF)c1ccc(Oc2cc(F)cc(C#N)c2)c2c1[C@H](O)[C@H](F)C2` (single isomer, unassigned) [Example 276], in assay [1], the 50% inhibitory concentration (IC50) worked out at 58 nM. For the same molecule, the concentration for a half-maximal effect (EC50) with 786-O-Hif-Luc cells turned out to be 150 nM.

As for `N#CN=S(=O)(CF)c1ccc(Oc2cc(F)cc(C#N)c2)c2c1[C@H](O)[C@H](F)C2` (single isomer, unassigned) [Example 277], in assay [1], it took 135 nM to reach half-maximal inhibition (IC50). In addition, in the assay on 786-O-Hif-Luc cells, the concentration giving a half-maximal response (EC50) stood at 74 nM.

The molecule `N#CN=S(=O)(CF)c1ccc(Oc2cc(F)cc(C#N)c2)c2c1[C@H](O)C(F)(F)C2` (single isomer, unassigned) [Example 286] returned a half-maximal inhibitory concentration (IC50) in assay [1] of 24 nM. Besides, the concentration for a half-maximal effect (EC50) with 786-O-Hif-Luc cells turned out to be 140 nM.

Molecule `N#Cc1cc(F)cc(Oc2ccc(S(=N)(=O)C(F)(F)F)c3c2CC(F)(F)[C@H]3O)c1` (single isomer, unassigned) [Example 305] returned a half-maximal inhibitory concentration (IC50) in assay [1] of under 5 nM. Besides, the EC50 in the assay with 786-O cells (Homo sapiens, 786-0, 786-O cells) was 19.5 nM; in the assay with 786-O-Hif-Luc cells it was 13 nM.

The molecule `N#Cc1cc(F)cc(Oc2ccc(S(=N)(=O)C(F)(F)F)c3c2CC(F)(F)[C@H]3O)c1` (single isomer, unassigned) [Example 306] yielded an IC50 in assay [1] of under 5 nM. Further, the figures for the EC50 in the assay with 786-O cells (786-O cells) and in the assay on 786-O-Hif-Luc cells were 19.2 nM and 30 nM, respectively.

For the molecule `O=S(=O)(c1ccc(Oc2cc(F)cc(Cl)c2)c(Br)c1CO)C(F)F` [Compound 74, (2-bromo-3-(3-chloro-5-fluorophenoxy)-6-((difluoromethyl)sulfonyl)phenyl)methanol], in the assay with 786-O-Hif-Luc cells, the concentration for a half-maximal effect (EC50) was 490 nM.

Molecule `O=S(=O)(c1ccc(Oc2cc(F)cc(Cl)c2)c(Br)c1)C(F)(F)F` [Compound 116, 2-Bromo-1-(3-chloro-5-fluorophenoxy)-4-((trifluoromethyl)sulfonyl)benzene] returned an IC50 in assay [1] of 150 nM. Moreover, the concentration for a half-maximal effect (EC50) in the assay with 786-O-Hif-Luc cells stood at 3500 nM.

For the molecule `O=S(=O)(c1ccc(Oc2cc(F)cc(Cl)c2)c(Cl)c1)C(F)(F)F` [Compound 128, 2-Chloro-1-(3-chloro-5-fluorophenoxy)-4-((trifluoromethyl)sulfonyl)benzene], half-maximal inhibition in assay [1] (IC50) required 150 nM. In addition, the 50% effective concentration (EC50) with 786-O-Hif-Luc cells turned out to be 3000 nM.

On to `N#Cc1cc(F)cc(Oc2ccc(S(=N)(=O)C(F)(F)F)c3c2CCC3O)c1` (stereo not drawn) [Compound 259, 3-Fluoro-5-((1-hydroxy-7-(S-(trifluoromethyl)sulfonimidoyl)-2,3-dihydro-1H-inden-4-yl)oxy)benzonitrile], for which the 50% inhibitory concentration (IC50) in assay [1] is 1200 nM. In addition, the concentration for a half-maximal effect (EC50) in the assay on 786-O-Hif-Luc cells stood at 2000 nM.

In assay [1], `N#Cc1cc(F)cc(Oc2ccc(S(=O)(=O)C(F)(F)F)c3c2CC(F)C3N)c1` (stereo not drawn) [Compound 265, 3-((1-amino-2-fluoro-7-((trifluoromethyl)sulfonyl)-2,3-dihydro-1H-inden-4-yl)oxy)-5-fluorobenzonitrile] registered an IC50 of 90 nM. Also, the half-maximal effective concentration (EC50) with 786-O-Hif-Luc cells was found to be 900 nM.

`N#Cc1cc(Oc2ccc(S(=O)(=O)C(F)(F)F)c3c2CC(F)(F)[C@H]3O)ccc1F` [Example 228, (S)-5-((2,2-Difluoro-1-hydroxy-7-((trifluoromethyl)sulfonyl)-2,3-dihydro-1H-inden-4-yl)oxy)-2-fluorobenzonitrile]: in assay [1], the IC50 was found to be 40 nM.

`O=S(=O)(c1ccc(Oc2ccc(F)cc2)c2c1[C@H](O)C(F)(F)C2)C(F)(F)F` [Example 230, (S)-2,2-Difluoro-4-(4-fluorophenoxy)-7-((trifluoromethyl)sulfonyl)-2,3-dihydro-1H-inden-1-ol] yielded an IC50 in assay [1] of 28 nM.

Take `O=S(=O)(c1ccc(Oc2ccc(F)c(F)c2)c2c1[C@H](O)C(F)(F)C2)C(F)(F)F` [Example 233, (S)-4-(3,4-Difluorophenoxy)-2,2-difluoro-7-((trifluoromethyl)sulfonyl)-2,3-dihydro-1H-inden-1-ol]: in assay [1], the concentration for half-maximal inhibition (IC50) was under 5 nM.

Regarding `N#Cc1cccc(Oc2ccc(S(=O)(=O)C(F)F)c3c2CC(F)(F)[C@H]3O)c1` [Example 236, (S)-3-((7-((difluoromethyl)sulfonyl)-2,2-difluoro-1-hydroxy-2,3-dihydro-1H-inden-4-yl)oxy)benzonitrile], the IC50 in assay [1] was under 5 nM.

Regarding `CS(=O)(=NC#N)c1ccc(Oc2cc(F)cc(C#N)c2)c2c1[C@H](O)C(F)(F)C2` (stereo partly drawn) [Example 240], it took 26 nM to reach half-maximal inhibition in assay [1] (IC50).

`O=S(=O)(c1ccc(Oc2cc(Cl)c[n+]([O-])c2)c2c1[C@H](O)C(F)(F)C2)C(F)(F)F` [Example 260, (S)-3-Chloro-5-((2,2-difluoro-1-hydroxy-7-((trifluoromethyl)sulfonyl)-2,3-dihydro-1H-inden-4-yl)oxy)pyridine 1-oxide]: in assay [1], the midpoint of inhibition, the IC50, lay at 66 nM.

Consider `N#Cc1cc(Oc2ccc(S(=O)(=O)C(F)(F)F)c3c2CC(F)(F)[C@H]3O)c[n+]([O-])c1` [Example 267, (S)-3-cyano-5-((2,2-difluoro-1-hydroxy-7-((trifluoromethyl)sulfonyl)-2,3-dihydro-1H-inden-4-yl)oxy)pyridine 1-oxide], for which the IC50 in assay [1] was found to be 92 nM.

Regarding `CS(=O)(=O)c1ccc(Oc2cc(F)cc(C#N)c2)c2c1[C@H](O)C(F)(Cl)C2` (stereo partly drawn) [Example 270, 3-(((1S)-2-chloro-2-fluoro-1-hydroxy-7-(methylsulfonyl)-2,3-dihydro-1H-inden-4-yl)oxy)-5-fluorobenzonitrile], the half-maximal inhibitory concentration (IC50) in assay [1] was 97 nM.

As to `CS(=O)(=O)c1ccc(Oc2cc(F)cc(C#N)c2)c2c1[C@H](O)C(F)(F)[C@@H]2F` [Example 292, 3-fluoro-5-[(1S,3R)-2,2,3-trifluoro-1-hydroxy-7-methylsulfonyl-indan-4-yl]oxy-benzonitrile], the IC50 in assay [1] is under 5 nM.

Consider `CS(=O)(=NC#N)c1ccc(Oc2cc(F)cc(C#N)c2)c2c1[C@H](O)[C@H](F)C2` (stereo partly drawn) [Example 302, N-(((2R,3S)-7-(3-cyano-5-fluorophenoxy)-2-fluoro-3-hydroxy-2,3-dihydro-1H-inden-4-yl)(methyl)(oxo)-λ^6-sulfanylidene)cyanamide], for which it took 63 nM to reach half-maximal inhibition in assay [1] (IC50).

For `N#Cc1cncc(Oc2ccc(C(F)(F)F)c3c2CC(F)(F)[C@H]3O)c1` [Example 303, 5-[(1S)-2,2-difluoro-1-hydroxy-7-(trifluoromethyl)indan-4-yl]oxypyridine-3-carbonitrile], in assay [1], the IC50 came out at 37 nM.

In turn, `CS(=O)(=O)c1ccc(Oc2cc(F)cc(Br)c2)c2c1[C@H](O)C(F)(F)C2` [Example 304, (S)-4-(3-bromo-5-fluorophenoxy)-2,2-difluoro-7-(methylsulfonyl)-2,3-dihydro-1H-inden-1-ol] gave a 50% inhibitory concentration (IC50) in assay [1] of under 5 nM.

The molecule `O=S(=O)(c1ccc(Oc2cncc(F)c2)c2c1[C@H](O)C(F)(F)C2)C(F)(F)F` [Example 309, (S)-2,2-difluoro-4-((5-fluoropyridin-3-yl)oxy)-7-((trifluoromethyl)sulfonyl)-2,3-dihydro-1H-inden-1-ol] had a half-maximal inhibitory concentration (IC50) in assay [1] of under 5 nM.

As to `O=S(=O)(c1ccc(Oc2cc(F)c[n+]([O-])c2)c2c1[C@H](O)C(F)(F)C2)C(F)(F)F` [Example 310, (S)-3-((2,2-difluoro-1-hydroxy-7-((trifluoromethyl)sulfonyl)-2,3-dihydro-1H-inden-4-yl)oxonio)-5-fluoropyridine 1-oxide], the half-maximal inhibitory concentration (IC50) in assay [1] came to 16 nM.

`N#Cc1cncc(Oc2ccc(S(=N)(=O)C(F)(F)F)c3c2CC(F)(F)[C@H]3O)c1` (stereo partly drawn) [Example 314, 5-(((1S)-2,2-difluoro-1-hydroxy-7-(S-(trifluoromethyl)sulfonimidoyl)-2,3-dihydro-1H-inden-4-yl)oxy)nicotinonitrile] showed an IC50 in assay [1] of 25 nM.

As for `N#Cc1cncc(Oc2ccc(S(=N)(=O)C(F)(F)F)c3c2CC(F)(F)[C@H]3O)c1` (stereo partly drawn) [Example 315, 5-(((1S)-2,2-difluoro-1-hydroxy-7-(S-(trifluoromethyl)sulfonimidoyl)-2,3-dihydro-1H-inden-4-yl)oxy)nicotinonitrile], in assay [1], the midpoint of inhibition, the IC50, lay at 23.2 nM. In addition, the concentration giving a half-maximal response (EC50) with 786-O-Hif-Luc cells was 110 nM.

“(1R,3S)-4-(3-chloro-5-fluorophenoxy)-3-(hydroxymethyl)-7-((trifluoromethyl)sulfonyl)-2,3-dihydro-1H-inden-1-ol [Compound 281]” had an IC50 in assay [1] of 730 nM. This counts as sub-micromolar.

In the case of “[[(1R,3R)-7-(3-cyano-5-fluoro-phenoxy)-1,2,2-trifluoro-3-hydroxy-indan-4-yl]-methyl-oxo-λ^6-sulfanylidene]cyanamide [Compound 320]”, in assay [1], the 50% inhibitory concentration (IC50) was 1570 nM.

In the case of “[[(1R,3R)-7-(3-cyano-5-fluoro-phenoxy)-1,2,2-trifluoro-3-hydroxy-indan-4-yl]-methyl-oxo-λ^6-sulfanylidene]cyanamide [Compound 322]”, half-maximal inhibition in assay [1] (IC50) was put at 9800 nM.

A word on the EC50: it is the concentration giving half of the maximal effect. Broadly, the IC50 is the concentration that inhibits the measured activity by half. A higher IC50 goes with lower potency.
